Test system: Japanese medaka (Oryzias latipes)
Assay: Fish short-term reproduction assay (FSTRA, OECD TG229), 21-day flow-through exposure
Details: for Fertility rate (%) / Mortality (%) Female / Mortality (%) Male / Number of fertilized eggs / Number of total eggs / SSC Female / SSC Male / VTG (ng/mg of liver) Female / VTG (ng/mg of liver) Male: 21 days; for GSI Female / GSI Male / HSI Female / HSI Male / Length Female / Length Male / Weight Female / Weight Male: at completion of exposure; for effect on fecundity (number of total eggs), in words: within the test concentrations
Procedure, shortened: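 Japanese medaka (NIES-R strain, 16 ± 2 weeks old) were exposed in flow-through tanks for 3 weeks, three males and three females per tank, four replicate tanks per group, with a dilution water control. Concentrations were spaced by a factor of 2–5. Eggs were collected daily and counted as fertilized or unfertilized.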

C[C@]12C=CC3=C4CCC(=O)C=C4CC[C@H]3[C@@H]1CC[C@@H]2O [TRB, 17β‐Trenbolone]
LOEC on female SSC (papillary process formation on anal fin) (21-day exposure, measured conc.): 26.8 ng/L
Fertility rate (%) (measured conc. 8.03 ng/L): 95%
Mortality (%) Female (measured conc. 8.03 ng/L): 0%
Mortality (%) Male (measured conc. 8.03 ng/L): 0%
Number of fertilized eggs (measured conc. 8.03 ng/L): 26
Number of total eggs (measured conc. 8.03 ng/L): 27 ± 3.5 /female/day
SSC Female (measured conc. 8.03 ng/L): 0 ± 0
SSC Male (measured conc. 8.03 ng/L): 86 ± 3.9
VTG (ng/mg of liver) Female (measured conc. 8.03 ng/L): 736 ± 147 ng/mg of liver
VTG (ng/mg of liver) Male (measured conc. 8.03 ng/L): 3.7 ± 3.2 ng/mg of liver
GSI Female (measured conc. 8.03 ng/L): 9.7%
GSI Male (measured conc. 8.03 ng/L): 1.04%
HSI Female (measured conc. 8.03 ng/L): 5.4%
HSI Male (measured conc. 8.03 ng/L): 1.8%
Length Female (measured conc. 8.03 ng/L): 36.4 mm
Length Male (measured conc. 8.03 ng/L): 36.7 mm
Weight Female (measured conc. 8.03 ng/L): 573 mg
Weight Male (measured conc. 8.03 ng/L): 502 mg
Fertility rate (%) (measured conc. 26.8 ng/L): 93%
Mortality (%) Female (measured conc. 26.8 ng/L): 0%
Mortality (%) Male (measured conc. 26.8 ng/L): 0%
Number of fertilized eggs (measured conc. 26.8 ng/L): 22
Number of total eggs (measured conc. 26.8 ng/L): 24 ± 2.6 /female/day
SSC Female (measured conc. 26.8 ng/L): 6.6 ± 6.1
SSC Male (measured conc. 26.8 ng/L): 101 ± 17
VTG (ng/mg of liver) Female (measured conc. 26.8 ng/L): 696 ± 211 ng/mg of liver
VTG (ng/mg of liver) Male (measured conc. 26.8 ng/L): 6.5 ± 3.8 ng/mg of liver
GSI Female (measured conc. 26.8 ng/L): 11.3%
GSI Male (measured conc. 26.8 ng/L): 1.06%
HSI Female (measured conc. 26.8 ng/L): 5.5%
HSI Male (measured conc. 26.8 ng/L): 2.1%
Length Female (measured conc. 26.8 ng/L): 35.6 mm
Length Male (measured conc. 26.8 ng/L): 37.3 mm
Weight Female (measured conc. 26.8 ng/L): 515 mg
Weight Male (measured conc. 26.8 ng/L): 500 mg
Fertility rate (%) (measured conc. 84.6 ng/L): 90%
Mortality (%) Female (measured conc. 84.6 ng/L): 0%
Mortality (%) Male (measured conc. 84.6 ng/L): 0%
Number of fertilized eggs (measured conc. 84.6 ng/L): 9.1
Number of total eggs (measured conc. 84.6 ng/L): 10 ± 2.4 /female/day
SSC Female (measured conc. 84.6 ng/L): 48 ± 6.7
SSC Male (measured conc. 84.6 ng/L): 104 ± 8.1
VTG (ng/mg of liver) Female (measured conc. 84.6 ng/L): 658 ± 102 ng/mg of liver
VTG (ng/mg of liver) Male (measured conc. 84.6 ng/L): 4.9 ± 4.3 ng/mg of liver
GSI Female (measured conc. 84.6 ng/L): 16.1%
GSI Male (measured conc. 84.6 ng/L): 1.11%
HSI Female (measured conc. 84.6 ng/L): 3.7%
HSI Male (measured conc. 84.6 ng/L): 2.1%
Length Female (measured conc. 84.6 ng/L): 36.1 mm
Length Male (measured conc. 84.6 ng/L): 37.7 mm
Weight Female (measured conc. 84.6 ng/L): 625 mg
Weight Male (measured conc. 84.6 ng/L): 524 mg
Fertility rate (%) (measured conc. 291 ng/L): 74%
Mortality (%) Female (measured conc. 291 ng/L): 0%
Mortality (%) Male (measured conc. 291 ng/L): 0%
Number of fertilized eggs (measured conc. 291 ng/L): 0.9
Number of total eggs (measured conc. 291 ng/L): 1.2 ± 0.5 /female/day
SSC Female (measured conc. 291 ng/L): 76 ± 3.9
SSC Male (measured conc. 291 ng/L): 103 ± 8.4
VTG (ng/mg of liver) Female (measured conc. 291 ng/L): 641 ± 200 ng/mg of liver
VTG (ng/mg of liver) Male (measured conc. 291 ng/L): 4.5 ± 2.1 ng/mg of liver
GSI Female (measured conc. 291 ng/L): 18.8%
GSI Male (measured conc. 291 ng/L): 1.10%
HSI Female (measured conc. 291 ng/L): 3.4%
HSI Male (measured conc. 291 ng/L): 1.8%
Length Female (measured conc. 291 ng/L): 37.3 mm
Length Male (measured conc. 291 ng/L): 37.0 mm
Weight Female (measured conc. 291 ng/L): 691 mg
Weight Male (measured conc. 291 ng/L): 504 mg
effect on fecundity (number of total eggs), in words (21-day exposure): significantly reduced

CC(=O)N1CCN(c2ccc(OCC3COC(Cn4ccnc4)(c4ccc(Cl)cc4Cl)O3)cc2)CC1 (stereo not drawn) [KCZ, Ketoconazole]
effect on male SSC, in words (21-day exposure): statistical significance
LOEC for decrease of VTG in females (hepatic VTG, 21-day exposure, measured conc.): 233 µg/L
Fertility rate (%) (measured conc. 105 μg/L): 91%
Mortality (%) Female (measured conc. 105 μg/L): 0%
Mortality (%) Male (measured conc. 105 μg/L): 0%
Number of fertilized eggs (measured conc. 105 μg/L): 22
Number of total eggs (measured conc. 105 μg/L): 24 ± 1.1 /female/day
SSC Female (measured conc. 105 μg/L): 0 ± 0
SSC Male (measured conc. 105 μg/L): 82 ± 10
VTG (ng/mg of liver) Female (measured conc. 105 μg/L): 618 ± 81 ng/mg of liver
VTG (ng/mg of liver) Male (measured conc. 105 μg/L): 1.4 ± 0.3 ng/mg of liver
GSI Female (measured conc. 105 μg/L): 11.6%
GSI Male (measured conc. 105 μg/L): 1.08%
HSI Female (measured conc. 105 μg/L): 4.2%
HSI Male (measured conc. 105 μg/L): 1.9%
Length Female (measured conc. 105 μg/L): 33.2 mm
Length Male (measured conc. 105 μg/L): 32.7 mm
Weight Female (measured conc. 105 μg/L): 387 mg
Weight Male (measured conc. 105 μg/L): 381 mg
Fertility rate (%) (measured conc. 233 μg/L): 89%
Mortality (%) Female (measured conc. 233 μg/L): 0%
Mortality (%) Male (measured conc. 233 μg/L): 0%
Number of fertilized eggs (measured conc. 233 μg/L): 18
Number of total eggs (measured conc. 233 μg/L): 20 ± 1.6 /female/day
SSC Female (measured conc. 233 μg/L): 0 ± 0
SSC Male (measured conc. 233 μg/L): 116 ± 25
VTG (ng/mg of liver) Female (measured conc. 233 μg/L): 542 ± 353 ng/mg of liver
VTG (ng/mg of liver) Male (measured conc. 233 μg/L): 1.3 ± 0.1 ng/mg of liver
GSI Female (measured conc. 233 μg/L): 12.0%
GSI Male (measured conc. 233 μg/L): 1.26%
HSI Female (measured conc. 233 μg/L): 8.8%
HSI Male (measured conc. 233 μg/L): 3.8%
Length Female (measured conc. 233 μg/L): 33.3 mm
Length Male (measured conc. 233 μg/L): 33.3 mm
Weight Female (measured conc. 233 μg/L): 419 mg
Weight Male (measured conc. 233 μg/L): 416 mg
Fertility rate (%) (measured conc. 405 μg/L): 81%
Mortality (%) Female (measured conc. 405 μg/L): 8%
Mortality (%) Male (measured conc. 405 μg/L): 0%
Number of fertilized eggs (measured conc. 405 μg/L): 9.0
Number of total eggs (measured conc. 405 μg/L): 11 ± 4.4 /female/day
SSC Female (measured conc. 405 μg/L): 0 ± 0
SSC Male (measured conc. 405 μg/L): 91 ± 13
VTG (ng/mg of liver) Female (measured conc. 405 μg/L): 190 ± 123 ng/mg of liver
VTG (ng/mg of liver) Male (measured conc. 405 μg/L): 1.1 ± 0.1 ng/mg of liver
GSI Female (measured conc. 405 μg/L): 13.6%
GSI Male (measured conc. 405 μg/L): 0.98%
HSI Female (measured conc. 405 μg/L): 12.1%
HSI Male (measured conc. 405 μg/L): 3.5%
Length Female (measured conc. 405 μg/L): 32.6 mm
Length Male (measured conc. 405 μg/L): 32.4 mm
Weight Female (measured conc. 405 μg/L): 410 mg
Weight Male (measured conc. 405 μg/L): 404 mg
Fertility rate (%) (measured conc. 795 μg/L): 76%
Mortality (%) Female (measured conc. 795 μg/L): 42%
Mortality (%) Male (measured conc. 795 μg/L): 58%
Number of fertilized eggs (measured conc. 795 μg/L): 3.5
Number of total eggs (measured conc. 795 μg/L): 4.7 ± 0.9 /female/day
SSC Female (measured conc. 795 μg/L): 0 ± 0
SSC Male (measured conc. 795 μg/L): 80 ± 22
VTG (ng/mg of liver) Female (measured conc. 795 μg/L): 56 ± 95 ng/mg of liver
VTG (ng/mg of liver) Male (measured conc. 795 μg/L): 1.1 ± 0.1 ng/mg of liver
GSI Female (measured conc. 795 μg/L): 11.0%
GSI Male (measured conc. 795 μg/L): 1.35%
HSI Female (measured conc. 795 μg/L): 11.8%
HSI Male (measured conc. 795 μg/L): 5.1%
Length Female (measured conc. 795 μg/L): 31.7 mm
Length Male (measured conc. 795 μg/L): 30.2 mm
Weight Female (measured conc. 795 μg/L): 376 mg
Weight Male (measured conc. 795 μg/L): 282 mg
effect on fecundity (number of total eggs), in words (21-day exposure): significant difference from the control
